Data from patent publication US8362072B2, “BRCA1-based breast or ovarian cancer treatment agents and methods of use” (University of Kansas, priority 2007, dated 2013).

Key:
human BRCA1 promoter = experiment: BRCA1-luciferase reporter assay (Steady-Glo) in stably transfected MCF7 cells; format: cell-based; settings: for EC50 / EC90: MCF7-BRCA1-luciferase cells, dilution series; for BRCA1-luciferase activity (in words): MCF7 pGL4.14-hBRCA1.3 cells
Procedure: Hygromycin selected MCF7 cells were seeded in 384-well tissue culture plates. The first two columns of each plate were empty so as to include established positive and negative controls. Each of the remaining 352 wells contained a compound to be screened. MCF7 cells were incubated with the compounds for 48 hours. Luciferase activity was measured using the Steady Glo Luciferase Assay System (Promega). Briefly, 5×10^6 MCF7 cells were transfected with […] of purified pGL4.14 containing the human BRCA1 promoter (pGL4.14-hBRCA) with Effectene as per manufacturers protocol (Qiagen). Stable transfectants were selected with […] Hygromicin B. 1×10^5 or 2×10^5 stable transfectants were tested for luciferase activity with the Steady-Glo Luciferase Assay System (Promega).
Hygromycin selected MCF-7 cells (e.g., MCF7 clone pGL4.14-hBRCA1.3) stably transfected with the human BRCA1-luciferase reporter construct (e.g., pGL4.14-hBRCA1.3) were seeded in 384-well white tissue culture plates (Becton Dickenson, San Diego, Calif.) at 1×10^4 cells/well. These cells were then stimulated with indicated concentrations of genistein (Sigma-Aldrich, St. Louis, Mo.) for 0, 6, 9, 24 and 48 hours. Luciferase activity was measured using the Steady Glo Luciferase Assay System (Promega). The data shown in FIG. 3A is representative of 3 individual experiments.
Two different chemical libraries were screened for the ability to enhance BRCA1 gene expression. To examine the effects of each compound on BRCA1 expression, the human BRCA1 promoter was cloned and inserted upstream of the firefly luciferase gene in the plasmid pGL4.14 (BRCA1-Luc) (Promega), as described above. The ER positive human breast cancer cell line, MCF7, was transfected and stable transfectants were selected with hygromycin.
Briefly, compounds were plated in a 384 well plate in a total volume of 20 μl. A ten point dilution series was used at concentrations—100 µM, 10 μM, 1 μM, 100 nM, 10 nM, 1 nM, 0.1 nM, 0.01 nM, 0.0001 nM, 0 (DMSO vehicle only). A second dilution series of 100 μM, 32.5 μM, […], 3.6 μM, 1.2 μM, 400 nM, 132.2 nM, 45 nM, 14.8 nM, 5 nM, and 1.65 nM was also used. MCF7-BRCA1-luciferase cells were added to the compounds at a concentration of 1×10^4 cells/well in a volume of 25 μl. The 384 well plates, containing the compounds+cells, were then incubated at 37° C. for 48 hours. After 48 hours, luciferase activity was measured with the Steady-Glo® Luciferase Assay System (Promega, Madison, Wis.).

BRCA1 protein = BRCA1 protein expression in MCF7 cells by Western blot; format: cell-based, human; settings: 48 hours, compared to DMSO
Procedure: Compounds 29 and 30 were studied for BRCA1 and actin (e.g., housekeeping gene for normalization) protein expression. Briefly, MCF7 cells (2×10^6) in 2 ml MEM were plated in a 6 well tissue culture plate and were either left nonstimulated or treated with DMSO (vehicle control), […] Genistein, or 3 different concentrations of indicated test compound—3.65 μM, […], 32.5 μM. Following incubation at 37° C. for 48 hours, the media was removed and the cells were washed 1× with 500 μl of ice cold PBS. Another 500 μl of ice cold PBS was then added and the cells were scraped off the well and transferred to a microcentrifuge tube. To ensure all cells were removed from the well, an additional […] of ice cold PBS was added to the well and any remaining cells were combined with the initial cell harvest into the microcentrifuge tube. The cells were then pelleted by centrifugation for 5 min at 3000 rpm, 4° C. The supernate was removed and the pellet was then lysed in 150 μl of ice cold RIPA buffer+1× protease inhibitors, on ice for 30 minutes, vortexing occasionally. The cellular debris was then removed by centrifugation for 20 minutes at 11,000 rpm, 4° C. The remaining supernate, containing the extracted proteins, was then transferred to a microcentrifuge tube and quantified using the Bio-Rad DC assay. 100 μg of protein+1×SDS-PAGE sample buffer was loaded onto an 8% Tris glycine gel. The proteins were separated in a tris glycine running buffer at 125 volts for 90 minutes. The proteins were then transferred out of the gel onto PVDF in an overnight transfer with 20% methanol at 35 volts, 4° C. The PVDF membrane was then blocked with 5% milk/PBST (0.1%) for 1 hour at room temperature (RT). BRCA1 protein was detected using anti-BRCA1 (Ab-1, EMD Biosciences) at a 1:250 dilution in 3% milk/PBST, overnight at 4° C. […] To monitor equal protein loading, actin was detected using anti-actin at a 1:200,000 dilution in 5% milk/PBST for 1 hr at RT. […] Chemiluminescence was detected using the SuperSignal West Femto kit made by Pierce Biotechnology and the UVP imaging center. […]

SMILES | EC50 (human BRCA1 promoter; Homo sapiens, MCF7, 48 h) [µM] | EC90 (human BRCA1 promoter; Homo sapiens, 48 hours) [µM] | BRCA1-luciferase activity (in words) (human BRCA1 promoter; 48 hours) | EC50 (human BRCA1 promoter; 48 hours) [µM] | BRCA1 protein expression (BRCA1 protein) | BRCA1-luciferase activity (in words) (human BRCA1 promoter; 48 hours, listed as genistein)
Cc1cc(C(=O)Nc2ccc(N3CCOCC3)cc2)ccc1[N+](=O)[O-] [Cmpd 3] | 8.73 | 47.3 | comparatively superior |  |  | 
COc1ccc(-c2nc3cc(C)ccc3o2)cc1N [Cmpd 4] | 0.729 | 1.77 |  |  |  | 
Fc1ccc(Nc2nc(-c3ccccc3)cs2)cc1 [Cmpd 5] | 11.6 | ~13.8 |  |  |  | 
Fc1ccc(-c2nnc(-c3ccc(F)cc3)o2)cc1 [Cmpd 6] | 1.64 | 24.2 |  |  |  | 
O=C(CSc1nc(=O)cc(O)[nH]1)c1ccccc1 [Cmpd 7] | 2060 | ~63700 |  |  |  | 
N/C(=N\OC(=O)Cc1cccs1)c1ccc(Cl)cc1 [Cmpd 8] | 2150 |  |  |  |  | 
O=C(Nc1ccc(Cl)c(Cl)c1)c1ccccc1Br [Cmpd 9] | 1.3 | 10.1 | comparatively superior, but similar to Compound 8 and 10 |  |  | 
Cc1cccc(-c2noc(-c3cccs3)n2)c1 [Cmpd 10] | 0.218 | 2.56 |  |  |  | 
O/N=C(\CSc1nc2ccccc2[nH]1)c1ccccc1 [Cmpd 11] | 6.77 | 80.5 | comparatively superior to Compound 13 |  |  | 
Cn1nnc(-c2ccc(OCc3ccccc3F)cc2)n1 [Cmpd 12] | 1.67 | 15.8 | comparatively superior to Compound 13 |  |  | 
COc1ccccc1OCC(=O)O/N=C(\N)c1ccccn1 [Cmpd 13] | 69.6 | 377 |  |  |  | 
CC(C)c1ccc(OCC(=O)O/N=C(\N)c2ccncc2)c(Br)c1 [Cmpd 14] | 106 | 998 | comparatively superior to Compound 13 |  |  | 
O=C(COc1cccc2cccnc12)N1CCc2ccccc21 [Cmpd 16] |  | ~38.8 |  |  |  | 
Cc1ccc(C(=O)Nc2ccc3c(c2)oc2ccccc23)o1 [Cmpd 17] | 0.948 | 2.85 |  |  |  | 
Cc1[nH]n(-c2ccc([N+](=O)[O-])cc2)c(=O)c1/C=N/C1CCCC1 [Cmpd 18] | 11.2 | 17.2 |  |  |  | 
CC(=O)c1cc(C#N)c(SC/C=C/c2ccccc2)nc1C [Cmpd 19] | 20.6 | 79.4 |  |  |  | 
N/C(=N\OC(=O)c1ccoc1)c1ccc(Br)cc1 [Cmpd 20] | 50.3 | 170 |  |  |  | 

SMILES | EC50 (human BRCA1 promoter; Homo sapiens, MCF7, 48 h) [µM] | EC90 (human BRCA1 promoter; Homo sapiens, 48 hours) [µM] | BRCA1-luciferase activity (in words) (human BRCA1 promoter; 48 hours) | EC50 (human BRCA1 promoter; 48 hours) [µM] | BRCA1 protein expression (BRCA1 protein) | BRCA1-luciferase activity (in words) (human BRCA1 promoter; 48 hours, listed as genistein)
Cc1ccc(/C(O)=C/C=N/c2cccc(Cl)c2C)cc1 [Cmpd 21] | 11.2 | ~9.72 |  |  |  | 
COc1ccc(/C(O)=C\C=N\c2ccccc2OC)cc1 [Cmpd 22] | 11 | 20.7 |  |  |  | 
COc1ccc(/C=N/c2ccc3[nH]c(-c4ccccc4)nc3c2)cc1OC [Cmpd 23] | 10.7 | ~11.8 |  |  |  | 
Cc1ccc(-c2nc3ccc(NCc4cccs4)cc3o2)cc1 [Cmpd 25] |  |  |  | 8.63 |  | 
Cc1ccc(-c2nc3ccc(NCc4cccs4)cc3o2)cc1 [Cmpd 26] |  | 366 |  | 28.7 |  | 
NNC(=O)c1nc(-c2ccccc2)cc(-c2ccccc2)n1 [Cmpd 27] |  | 0.00186 |  |  |  | 
O=C(Nc1ccc(Br)cn1)c1ccc(Oc2ccccc2)cc1 [Cmpd 28] | 6.96 |  |  |  |  | 
CC(=O)c1ccc(/N=C/c2ccc(OCc3ccc(F)cc3)cc2)cc1 [Cmpd 31] | 4.88 | 71.5 |  |  |  | 
COc1ccc2c(c1OC)C(=O)N(c1ccc(C)cc1)C2 [Cmpd 32] | 9.43 | 46.8 |  |  |  | 
O=c1c(-c2ccc(O)cc2)coc2cc(O)ccc12 [Daidzein, reference compound] |  |  | dose-dependent increase in BRCA1-luciferase activity |  |  | 
O=c1c(-c2ccc(O)cc2)coc2cc(O)cc(O)c12 [Genistein, genistein, reference compound] | 14.5 | 25 | dose-dependent increase in BRCA1-luciferase activity |  | increase in BRCA1 protein | increase in BRCA1-luciferase activity
c1ccc(CNc2ccc3[nH]c(-c4ccco4)nc3c2)cc1 [JN1-68] | 3.53 | 8.84 | rank with the other top compounds and genistein |  |  | 
Cc1cccc(/C=N/c2ccc3[nH]c(-c4ccco4)nc3c2)c1 [JN1-72] | 25.8 | 110 |  |  |  | 
Fc1cccc(CNc2ccc3[nH]c(-c4ccco4)nc3c2)c1 [JN1-76] | 2.42 | 5.94 | rank with the other top compounds and genistein |  |  | 
Clc1cccc(/C=N/c2ccc3[nH]c(-c4ccco4)nc3c2)c1 [JN1-77] | 34.9 | 196 |  |  |  | 
Fc1cccc(/C=N/c2ccc3[nH]c(-c4ccco4)nc3c2)c1 [JN1-78] | 17.4 | 49.4 |  |  |  | 
Clc1cccc(CNc2ccc3[nH]c(-c4ccco4)nc3c2)c1 [JN1-82] | 2.05 | 4.94 | rank with the other top compounds and genistein |  |  | 
